According to ChEMBL document CHEMBL5518178 (Eur J Med Chem, 2024):

How the values were obtained:
HCT-116 = experiment: Antiproliferative activity against human HCT-116 cells assessed as inhibition of cell growth incubated for 48 hrs by MTT assay; assay type: functional, cell-based; settings: HCT-116, 48 h
KYSE-30 = experiment: Antiproliferative activity against human KYSE-30 cells assessed as inhibition of cell growth incubated for 48 hrs by MTT assay; assay type: functional, cell-based; settings: KYSE-30, 48 h
MGC-803 [1] = experiment: Antiproliferative activity against human MGC-803 cells assessed as inhibition of cell growth incubated for 48 hrs by MTT assay; assay type: functional, cell-based; settings: MGC-803, 48 h
[2] = Toxicity in BALB/c-nude mouse xenografted with human MGC-803 cells assessed as change in body weight at 30 mg/kg/day, ip administered for 18 days; assay type: organism-based; settings: in vivo, 432 h, time 18 day
MGC-803 [3] = experiment: Antitumor activity against human MGC-803 cells xenografted in BALB/c-nude mouse assessed as tumor weight at 30 mg/kg/day, ip administered for 18 days (reference value: 0.656 g); assay type: functional; settings: time 18 day
MGC-803 [4] = experiment: Antitumor activity against human MGC-803 cells xenografted in BALB/c-nude mouse assessed as tumor growth inhibition at 30 mg/kg/day, ip administered for 18 days relative to control; assay type: functional; settings: MGC-803, 432 h, time 18 day, read-out: TGI
MGC-803 [5] = experiment: Antitumor activity against human MGC-803 cells xenografted in BALB/c-nude mouse assessed as tumor growth rate at 30 mg/kg/day, ip administered for 18 days relative to control; assay type: functional; settings: time 18 day
[6] = Toxicity in BALB/c-nude mouse xenografted with human MGC-803 cells assessed as abnormal behaviour at 30 mg/kg/day, ip administered for 18 days; assay type: organism-based; settings: in vivo, 432 h, time 18 day

SMILES	IC50 (HCT-116)	IC50 (MGC-803 [1])	IC50 (KYSE-30)	Activity [2]	Activity (MGC-803 [3])	inhibition in vivo at 30 mg/kg/day (MGC-803 [4])	Activity (MGC-803 [5])	Activity [6]
O=C(c1cc2ccccc2oc1=O)N1CCc2cc(Br)ccc21	14200 nM	13100 nM	17100 nM	–	–	–	–	–
O=c1cc(N2CCCC2)c2ccccc2o1	> 20000 nM	> 20000 nM	> 20000 nM	–	–	–	–	–
O=c1cc(N2CCOCC2)c2ccccc2o1	> 20000 nM	> 20000 nM	> 20000 nM	–	–	–	–	–
CC1CCN(c2cc(=O)oc3ccccc23)CC1	> 20000 nM	> 20000 nM	> 20000 nM	–	–	–	–	–
COc1ccc(N2CCN(c3cc(=O)oc4ccccc34)CC2)cc1	18700 nM	18100 nM	> 20000 nM	–	–	–	–	–
COc1ccc(/C=C\c2cc(OC)c(OC)c(OC)c2)cc1O [COMBRETASTATIN A4]	–	–	–	Non-Toxic	0.272 g	58.5%	38%	Non-Toxic
CN1CCN(c2cc(=O)oc3ccccc23)CC1	> 20000 nM	> 20000 nM	> 20000 nM	–	–	–	–	–
COc1cc2c(c(OC)c1OC)-c1ccc(OC)c(=O)cc1[C@@H](NC(C)=O)CC2 [COLCHICINE]	55 nM	41 nM	68 nM	–	–	–	–	–
COC1CCN(c2cc(=O)oc3ccccc23)CC1	> 20000 nM	> 20000 nM	> 20000 nM	–	–	–	–	–

More lines, in order of falling IC50 (HCT-116), values ahead:

IC50 (HCT-116)	IC50 (MGC-803 [1])	SMILES	IC50 (KYSE-30)	Activity [2]	Activity (MGC-803 [3])	inhibition in vivo at 30 mg/kg/day (MGC-803 [4])	Activity (MGC-803 [5])	Activity [6]
11900 nM	9990 nM	O=C(c1cc2ccccc2oc1=O)N1CCCc2cc(Cl)ccc21	13200 nM	–	–	–	–	–
9440 nM	7410 nM	COc1ccc2c(c1)CCN2C(=O)c1cc2ccccc2oc1=O	9080 nM	–	–	–	–	–
5580 nM	4140 nM	COc1ccc2c(c1)CCCN2C(=O)c1cc2ccccc2oc1=O	7190 nM	–	–	–	–	–
2980 nM	1290 nM	O=c1cc(N2CCc3ccccc32)c2ccccc2o1	2180 nM	–	–	–	–	–
2280 nM	2090 nM	Cc1ccc2c(c1)CCN2c1cc(=O)oc2ccccc12	1970 nM	–	–	–	–	–
1470 nM	1190 nM	O=c1cc(N2CCCc3cc(Br)ccc32)c2ccccc2o1	1520 nM	–	–	–	–	–
910 nM	880 nM	O=c1cc(N2CCCc3cc(O)ccc32)c2ccccc2o1	870 nM	–	–	–	–	–
730 nM	670 nM	O=c1cc(N2CCCc3ccccc32)c2ccccc2o1	680 nM	–	–	–	–	–
450 nM	420 nM	Cc1ccc2c(c1)CCCN2c1cc(=O)oc2ccccc12	400 nM	–	–	–	–	–
160 nM	120 nM	COc1ccc2c(c1)CCN2c1cc(=O)oc2ccccc12	150 nM	–	–	–	–	–
38 nM	12 nM	COc1ccc2c(c1)NC(=O)CN2c1cc(=O)oc2ccccc12	34 nM	–	–	–	–	–
